Assay results from DBAASP.
Values after ≈ are worked out from the molar mass of the structure shown.

How the values were obtained:
Assay in all cases: ≥ marks a high value that may be exact or a test limit, other limits are often not marked, values filed in µg/mL are converted to µM
[1] = test system: Candida albicans ATCC 90028
[2] = test system: Escherichia coli ATCC 25922
[3] = test system: Staphylococcus aureus NCTC 8325

Row | MIC [1] [µM] | MIC [2] [µM] | MIC [3] [µM] | SMILES
1 | 7 (≈ 18.1 µg/mL) | 5 (≈ 12.9 µg/mL) | 7 (≈ 18.1 µg/mL) | CC[C@H](C)[C@@H]1NC(=O)[C@H](C)NC(=O)[C@@H](NC(=O)[C@H](Cc2ccccc2)NC(=O)[C@@H](NC(=O)[C@H](CCCCN)NC(=O)[C@H](CO)NC(=O)[C@H](Cc2ccccc2)NC(=O)[C@@H](NC(=O)[C@H](CCCCN)NC(=O)[C@H](C)NC(=O)[C@H](C)NC(=O)[C@@H](NC(=O)[C@H](CO)NC(=O)[C@H](C)NC(=O)[C@@H](NC(=O)[C@@H](NC(=O)[C@@H]2CCCN2C(=O)[C@H](CC(C)C)NC(=O)[C@@H](N)Cc2ccccc2)[C@@H](C)CC)[C@@H](C)CC)C(C)C)C(C)C)[C@@H](C)CC)CSSC[C@@H](C(=O)O)NC(=O)[C@H](CCCCN)NC(=O)[C@H](CCCCN)NC(=O)[C@H](CO)NC1=O [FLPIIASVAAKVFSKIFCAISKKC]
2 | – | 6 (≈ 13.6 µg/mL) | 12.5 (≈ 28.4 µg/mL) | CC[C@H](C)[C@H](NC(=O)[C@H](CC(C)C)NC(=O)[C@H](CO)NC(=O)[C@@H](NC(=O)[C@H](CC(C)C)NC(=O)[C@H](CO)NC(=O)[C@@H]1CCCN1C(=O)[C@H](CC(C)C)NC(=O)CNC(=O)[C@H](CCCCN)NC(=O)[C@H](C)NC(=O)[C@H](CC(C)C)NC(=O)[C@H](C)NC(=O)CNC(=O)[C@@H](NC(=O)[C@@H](NC(=O)[C@H](CO)NC(=O)CNC(=O)[C@H](Cc1ccccc1)NC(=O)[C@@H](N)Cc1ccccc1)[C@@H](C)CC)[C@@H](C)CC)[C@@H](C)CC)C(=O)N[C@@H](CCCCN)C(=O)N[C@@H](CCCCN)C(N)=O [FFGSIIGALAKGLPSLISLIKK]
3 | – | – | 2 (≈ 5.29 µg/mL) | CC[C@H](C)[C@@H]1NC(=O)[C@H](C)NC(=O)[C@@H](NC(=O)[C@H](Cc2ccccc2)NC(=O)[C@@H](NC(=O)[C@H](CCCCN)NC(=O)[C@@H]2CCCN2C(=O)[C@H](CC(C)C)NC(=O)[C@H](Cc2ccccc2)NC(=O)[C@H](CCCCN)NC(=O)[C@H](C)NC(=O)[C@H](C)NC(=O)[C@H](CCSC)NC(=O)CNC(=O)[C@H](C)NC(=O)[C@@H](NC(=O)[C@H](Cc2ccccc2)NC(=O)[C@@H]2CCCN2C(=O)[C@H](CC(C)C)NC(=O)[C@@H](N)Cc2ccccc2)[C@@H](C)CC)[C@@H](C)CC)CSSC[C@@H](C(=O)O)NC(=O)[C@H](CCCCN)NC(=O)[C@H](CCCCN)NC(=O)[C@H](CO)NC1=O [FLPFIAGMAAKFLPKIFCAISKKC]
4 | – | > 80 | ≥ 160 | CC[C@H](C)[C@H](NC(=O)[C@H](C)NC(=O)[C@H](CCC(=O)O)NC(=O)[C@H](Cc1cnc[nH]1)NC(=O)[C@H](Cc1ccccc1)NC(=O)CNC(=O)[C@H](CCC(N)=O)NC(=O)[C@H](Cc1ccccc1)NC(=O)[C@@H](NC(=O)[C@H](CCCCN)NC(=O)[C@H](CCCCN)NC(=O)[C@H](CC(C)C)NC(=O)[C@H](C)NC(=O)[C@H](CC(N)=O)NC(=O)[C@H](CC(C)C)NC(=O)CN)C(C)C)C(=O)N[C@@H](CCCCN)C(=O)N[C@@H](CC(C)C)C(=O)N[C@H](C(=O)N[C@@H](CC(N)=O)C(=O)N[C@@H](CC(N)=O)C(=O)N[C@@H](Cc1cnc[nH]1)C(=O)N[C@H](C(=O)N[C@@H](CCC(N)=O)C(=O)O)C(C)C)[C@@H](C)CC [GLNALKKVFQGFHEAIKLINNHVQ]
5 | – | 12.5 (≈ 28.6 µg/mL) | 12.5 (≈ 28.6 µg/mL) | CC[C@H](C)[C@H](NC(=O)[C@H](CCSC)NC(=O)[C@H](CO)NC(=O)CNC(=O)[C@H](Cc1ccccc1)NC(=O)[C@@H](N)Cc1ccccc1)C(=O)NCC(=O)N[C@@H](C)C(=O)N[C@@H](CC(C)C)C(=O)N[C@@H](C)C(=O)N[C@@H](CCCCN)C(=O)NCC(=O)N[C@@H](CC(C)C)C(=O)N1CCC[C@H]1C(=O)N[C@@H](CO)C(=O)N[C@@H](CC(C)C)C(=O)N[C@H](C(=O)N[C@@H](CO)C(=O)N[C@@H](CC(C)C)C(=O)N[C@H](C(=O)N[C@@H](CCCCN)C(=O)N[C@@H](CCCCN)C(N)=O)[C@@H](C)CC)[C@@H](C)CC [FFGSMIGALAKGLPSLISLIKK]
